Several values for one entry are separate records, joined by “and”; a condition that tells them apart may be missing. Equal values may be shown once. Entries after “also recorded” stand apart in the source; their conditions may differ. Read-outs that look alike come from different tables or passages of the source.
Experiments:
[1] = test system: oligodendrocyte progenitor cells; assay: Western blot for myelin proteins PLP/DM20 and CNPase in treated oligodendrocyte progenitor cells; type: cell-based, mouse; settings: for induction of PLP/DM20 and CNPase expression at low concentrations: 0.01 and 0.1, 48 hrs (FIG. 2); for EC50: Mus musculus, Oligodendrocyte progenitor cell
Description: Oligodendrocyte progenitors were generated from embryonic neural progenitors growing in cell aggregates known as neurospheres (Nphs). Nph were prepared from embryos at 14.5 days of gestation obtained from timed pregnant females of either wild type mice or the proteolipid protein-enhanced-green fluorescence protein (Plp-EGFP) transgenic mouse. In brief, after separation of meninges and cerebellum, cerebrum tissue was mechanically triturated with a 1 ml Gilson pipette until total tissue disaggregation was achieved, filtered through a 70 μm cell strainer (Fisher Scientific, Pittsburg, Pa.) and plated in 25 cm^2 plastic culture flasks (2 brains/flask). Nph proliferation media (NPM) was DMEM/F12, B27 neuronal supplement (Gibco, Baltimore, Md.) and 10 ng/ml EGF (Sigma, St. Louis, Mo.). After 48-72 hr, floating Nphs were passaged at a 1:3 ratio in the same medium every 3-4 days. To generate oligodendrocyte progenitors, single cells suspensions were obtained by chemical disgregation with the mouse NeuroCult dissociation kit (StemCell Technologies, Alberta, Canada). The single cell suspension was filtered through a 70 μm cell strainer and plated on 96-well poly-D-Lysine (PDL)-coated plates at a cell density of 1.5×10^4 cells/cm^2. Cells were maintained in NPM supplemented with 10 ng/ml PDGF/bFGF instead of EGF. Bipolar, oligodendrocyte progenitor cells were observed 24 hours after plating. At the Moment of treatment to induce oligodendrocyte progenitor differentiation, the media was changed to OPC differentiation media containing NPM with a 1:10 dilution of PDGF/FGF.
For myelin protein analyses, cells were grown on 100 mm culture plates and after exposure to small molecules or controls were washed twice with ice-cold PBS. RIPA lysis buffer was added to the plates and the cells were scraped, collected and disrupted with a homogenizer on ice. Cell homogenates were then centrifuged at 6,000×g, 10 min, 4° C. and supernatants separated in a fresh tube. After adding Laemli loading buffer, proteins were denaturized at 70° C. for 10 mm and loaded in gradient gels (4-20, Criterion, BioRad, Calif.). Electroforetically separated proteins were electro-transferred to nitrocellulose membranes in a semi-dry apparatus and unspecific bonds were blocked with IRdye blocking solution for at least 1 hr at RT. After washing twice with TBS-T, primary antibodies were added and incubated over night at 4° C. Membranes were incubated with secondary, IRdye-infrared conjugated antibodies for 1 hr at RT and visualized on the Odyssey scanner.
The primary screening to select positive compounds was performed at a standard concentration of 10 μM with cell morphology analysis 48 hrs after treatment. Dose response curves at 48 hrs treatment time were performed to determine the minimum concentration compounds A, A-7 and B needed to induce cell maturation. We assessed oligodendrocyte differentiation by cell morphology changes, green fluorescence in cells generated from or Plp-EGFP transgenic mouse, immunostaining for myelin proteins and western blot for expression of the oligodendrocyte markers PLP/DM20 and 2′,3′, cyclic nucleotide 3′ phosphohydrolase (CNPase). EC50 values were also calculated based on results of western blot for myelin proteins and subsequent band densitometry analysis. Additionally, we followed cell differentiation induced over long time exposure to compounds A and B (7 days, 0.1-10 μM).

[2] = test system: lysolecithin-demyelinated cerebellar explants; assay: Myelin regeneration in lysolecithin-demyelinated cerebellar explants; type: cell-based, mouse; settings: 1 μM, 10 additional days after lysolecithin
Description: Myelination-demyelination-remyelination studies in cerebella organotypic cultures were carried out. In brief, after careful dissection to keep the tissue intact, cerebella of postnatal day 4-7 wild type or Plp-EGFP mouse pups was sectioned at 400-μm thickness using a Leica VT1000S vibratome. Cerebella sections were then plated on insert plates and a few droplets of high-glucose media were added to cover the tissue during the first 6 hours to allow attachment of the slices to the insert plate surface. Media used was 50% DMEM/F12, 25% Hank's buffered salt solution (both from Gibco), 25% horse serum, 5 mg/ml glucose and a combination of streptomycin/penicillin (Gibco). When the slices were firmly attached, fresh media was added to cover the tissue and the cultures were maintained in this conditions during 4-10 days. To induce demyelination, 0.5 mg/ml lysolecithin (I′-monoacyl-L-3-glycerylphosphorylcholine, Sigma) was added to the culture media for 17 hrs. After this time, the culture media was changed and treatments were performed by adding small molecules or DMSO controls to the plates for 4-10 additional days. Demyelination-remyelination was assessed by green fluorescence (Plp-EGFP) or immunostaining for myelin-axonal proteins and visualization was performed by confocal microscopy.
Acute demyelination of cerebellum tissue explants has been previously used as a reliable methodology to study myelin formation and regeneration Taking advantage of our Pip-EGFP mouse, which allowed for the accurate tracking of oligodendrocyte cell behavior during myelination/demyelination/remyelination and the cerebellar explants methodology, we analyzed the effect of compounds A, A-7 and B or oligodendrocyte cells and myelin regeneration after demyeliantion of the cerebellar explants with lysolecithin. Cerebellum from postnatal day 7 mice pups (P7) was sectioned and maintained in culture (see methods). […]

[3] = 48 hrs, read-out: EC50 for CNPase expression (western blot)
[4] = 48 hrs, read-out: EC50 for PLP/DM20 expression (western blot)

Structure (SMILES): CC(C)N1CCN(C(=O)COc2ccc(-c3ccccc3)cc2)CC1 [Compound A-7, 1-(Biphenyl-4-yloxy)acetyl-4-isopropylpiperazine]
- myelin protein PLP/DM20 expression compared to other compounds and controls [1]: dramatic up-regulation
- reduction of the amount necessary to induce the same effect as 10 μM compound A [1]: 1-2 orders of magnitude
- induction of PLP/DM20 expression relative to levels of the A treated cells ([1]; 10 μM): 147%
- effect at 50 μM ([1]; 50 μM): slightly decreases
- induction of PLP/DM20 and CNPase expression at low concentrations [1]: observed
- EC50 [1, 3]: 70 nM
- EC50 [1, 4]: 30 nM
- PLP/DM20 Expression (WB, % of Control) ([1]; Table 3, 10 μM, 48 hrs): 286.8 % of Control
- PLP/DM20 Expression (WB, % of Control) ([1]; Table 3, 10 μM, 48 hrs, listed as drawing 48): 286.8 ± 16.5 n = 6; p <0.01 % of Control
- PLP/DM20 Expression (WB, % of Control) ([1]; Table 4, 1 μM): 263.3 % of Control and 263.3 ± 25.2 % of Control
- PLP/DM20 Expression (WB, % of Control) ([1]; Table 4, 10 μM): 286.8 ± 16.5 % of Control
- oligodendrocyte cell recovery and myelin regeneration [2]: remarkable oligodendrocyte cell recovery; also recorded: evident oligodendrocyte cell recovery and myelin regeneration

Structure (SMILES): CCS(=O)(=O)N1CCN(C(=O)COc2ccc(-c3ccccc3)cc2)CC1 [Compound A, 1-[(4-biphenylyloxy)acetyl]-4-(ethylsulfonyl)piperazine]
- induction of PLP/DM20 and CNPase expression at low concentrations [1]: observed
- low concentration at which increased expression of the major myelin proteins is already detectable ([1]; 48 hrs): 0.1 µM
- EC50 [1, 3]: 10 nM
- EC50 [1, 4]: 23 nM
- PLP/DM20 Expression (WB, % of Control) ([1]; Table 3, 10 μM, 48 hrs): 195 ± 25.8 n = 6; p <0.01 % of Control
- PLP/DM20 Expression (WB, % of Control) ([1]; Table 4, 1 μM): 201.2 ± 49.4 % of Control
- PLP/DM20 Expression (WB, % of Control) ([1]; Table 4, 10 μM): 195.1 % of Control and 195.1 ± 25.8 % of Control
- oligodendrocyte cell recovery and myelin regeneration [2]: remarkable oligodendrocyte cell recovery; also recorded: evident oligodendrocyte cell recovery and myelin regeneration

Structure (SMILES): O=[N+]([O-])c1ccc(F)c(NS(=O)(=O)c2ccc(F)cc2)c1 [Compound B, 4-fluoro-N-(2-fluoro-5-nitrophenyl)benzenesulfonamide]
- induction of PLP/DM20 and CNPase expression at low concentrations [1]: observed
- oligodendrocyte cell differentiation at high doses compared with control cells ([1]; 10-50 μM): did not induce higher oligodendrocyte cell differentiation
- concentrations with significant/effective induction of myelin protein expression (western blot densitometry) ([1]; 48 hrs): 0.01 to 1 µM
- EC50 [1, 3]: 5 nM
- EC50 [1, 4]: 7 nM
- oligodendrocyte cell recovery and myelin regeneration [2]: remarkable oligodendrocyte cell recovery; also recorded: evident oligodendrocyte cell recovery and myelin regeneration
